# Test system: BN-472 metastasizing breast tumor
# Experiment: anti-tumor and anti-metastatic efficacy in the BN-472 metastasizing breast tumor model
# Assay type: in vivo, brown Norwegian rats
# Settings: oral administration, daily doses of 0.2 or 2 mg/kg for three weeks, rats
# Protocol: Experiments were carried out in order to investigate the anti-tumor efficacy and anti-metastatic efficacy of WX-771, WX-780 and WX-781.
# The assay system used was the BN-472 metastasizing breast tumor in brown Norwegian rats. The kind of tumor tissue used is described, for example, in Kort et al., J. Natl. Cancer Inst. 72 (1984) 709-713. The rats were purchased from Harlan Nederland, NL 5960-AD Horst, the Netherlands, and were from six to eight weeks old with a weight of from 128 g to 170 g.
# (4-Chlorobenzylsulfonyl-D-Ser-Gly-4-guanidinobenzyl-amide, hydrochloride salt) whose anti-tumor and anti-metastatic efficacy with subcutaneous injection had been disclosed was also studied for comparative purposes. For administration, 0.75 mg of WX-340 was dissolved in 20 ml of 5% (weight/volume) D-manitol in water and administered by subcutaneous injection in doses of 0.2 mg of drug/kg of rat.
# A phosphatidylcholine vehicle was administered as control and was obtained by introducing 400 mg of soya phosphatidylcholine in 20 ml of phosphate-buffered saline and 400 μl of absolute ethanol. 0.8 ml of the suspension was administered orally to the rats as control.
# WX-771 (7.5 mg) was introduced into 20 ml of a soya phosphatidylcholine solution as used also for the control. To administer 2 mg/kg, 0.8 ml of this suspension was administered orally. For a second group, the stock solution was diluted 1:10 to obtain a dose of 0.2 mg/kg when administering likewise 0.8 ml per rat.
# (§1) WX-780 (7.5 mg) was introduced into 20 ml of a soya phosphatidylcholine suspension according to the above-described control suspension. To administer a dose of 2 mg/kg, the rats were given 0.8 ml of said suspension. To administer a dose of 0.2 mg/kg, the stock solution was diluted 1:10, with 0.8 ml per rat still being administered.
# as §1, with “WX-781” for “WX-780”, “orally.” for “of said suspension.”, “ml/rat” for “ml per rat”, “administered orally.” for “administered.”
SMILES,anti-metastatic action,anti-tumor action
CC(C)(C)C(=O)OC[C@@H](NS(=O)(=O)Cc1ccc(Cl)cc1)C(=O)NCC(=O)NCc1ccc(NC(=N)NOC(=O)C(C)(C)C)cc1 [WX-771],significant,significant
C[C@@H](C(=O)NCc1ccc(Nc2noc(C(C)(C)C)n2)cc1)N(C)C(=O)[C@@H](COC(=O)C(C)(C)C)NS(=O)(=O)Cc1ccc(Cl)cc1 [WX-780],significant,significant
CC(C)(C)C(=O)OC[C@@H](NS(=O)(=O)Cc1ccc(Cl)cc1)C(=O)NCC(=O)NCc1ccc(Nc2noc(C(C)(C)C)n2)cc1 [WX-781],significant,significant

# Reference: patent publication US20090286837A1, “Oxadiazole compounds as urokinase inhibitors” (priority 2005, published 2009)
